Experimental data published in patent publication US20230312587A1, “PTERIDINONE COMPOUNDS AND USES THEREOF” (Vertex Pharmaceutical Incorporated, priority 2018, published 2023).
pIC50: −log10 of the molar value. Where two headings read alike, the source gives them in different places.

Key:
[1] = target: HEK293 membranes over-expressing WFS-1 (Homo sapiens (Human), UniProt O76024); assay: Radioligand displacement assay (tritiated Compound 136 probe); format: binding; conditions: displacement of tritiated Compound 136
Sequence of HEK293 membranes over-expressing WFS-1 (O76024 whole entry): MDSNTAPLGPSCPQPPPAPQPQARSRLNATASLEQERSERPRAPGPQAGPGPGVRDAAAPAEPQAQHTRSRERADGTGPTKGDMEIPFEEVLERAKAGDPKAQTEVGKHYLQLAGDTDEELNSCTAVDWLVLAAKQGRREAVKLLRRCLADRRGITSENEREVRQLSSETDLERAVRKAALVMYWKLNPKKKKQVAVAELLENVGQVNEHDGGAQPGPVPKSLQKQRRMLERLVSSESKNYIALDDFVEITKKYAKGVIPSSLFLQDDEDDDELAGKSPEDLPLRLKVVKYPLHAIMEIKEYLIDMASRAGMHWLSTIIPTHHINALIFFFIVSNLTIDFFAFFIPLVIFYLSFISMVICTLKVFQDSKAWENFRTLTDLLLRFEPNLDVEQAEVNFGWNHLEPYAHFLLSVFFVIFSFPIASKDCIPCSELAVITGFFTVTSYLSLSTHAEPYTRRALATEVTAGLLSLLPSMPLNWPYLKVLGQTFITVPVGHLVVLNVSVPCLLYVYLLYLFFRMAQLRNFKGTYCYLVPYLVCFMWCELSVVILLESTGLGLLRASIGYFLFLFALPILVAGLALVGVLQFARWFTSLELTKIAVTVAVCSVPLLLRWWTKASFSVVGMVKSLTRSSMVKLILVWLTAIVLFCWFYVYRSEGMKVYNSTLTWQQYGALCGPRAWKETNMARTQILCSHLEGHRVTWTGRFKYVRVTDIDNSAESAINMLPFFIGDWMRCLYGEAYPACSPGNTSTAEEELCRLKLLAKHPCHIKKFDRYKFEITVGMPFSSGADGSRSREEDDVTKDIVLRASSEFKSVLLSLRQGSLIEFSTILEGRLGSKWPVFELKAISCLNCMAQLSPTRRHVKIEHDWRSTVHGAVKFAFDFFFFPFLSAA
Summary of the method: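 WFS-1-overexpressing HEK293 membranes were preincubated 10 min with compound, then tritiated probe was added for 90 min at room temperature. Bound probe was collected by filtration on PEI-pretreated GF/B filters, washed and scintillation-counted. IC50 came from a 3-parameter fit of bound probe vs compound concentration.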

[2] = test system: Hek293 WFS1 over-expressor; assay: In vitro cell viability (CellTiter-Glo), Hek293 WFS1 over-expressor; format: cell-based; conditions: read-out: Hek293 WFS1 viability
Method: WFS1 cDNA is amplified from clone RC202901 (Origene Technologies) with primers 5′-TCCGCGGCCCCAAGCTTATCGCCATGGACTCCAACACTGC-3′ (SEQ ID NO: 1), 5′-GATGGGCCCAGATCTCGAGTCAGGCCGCCGACAGGAATG-3′ (SEQ ID NO: 2) and cloned into a retroviral mammalian expression vector pCLPCX using HD Infusion (CLONTECH) at Hind3-Xhol sites using standard procedures. The resulting clone is identified as pCLPCX_WFS1.
HEK293 (ATCC, catalog #CRL-1573) cells are plated in 10 cm dishes (Corning, product #430167) into 10 mL of complete DMEM cell culture media [DMEM (Life Technologies, product #11960-051) media supplemented with 10% FBS (Hyclone, catalog #SH30071.03), antimycotic/antibiotic (Life Technologies, product #15240-062), and Glutamax (Life Technologies, product #35050-061)] at 3×10^6 cells per dish. Cells are allowed to attach and grow overnight at 37° C. in humidified 5% CO2. Cells are co-transfected with pVSV-G, pCMV-Gag/Pol and pCLPCX_WFS1 using Fugene 6 (Promega, catalog #E2691) according to manufacturer's protocol. Separately, cells are co-transfected with pVSV-G, pCMV-Gag/Pol and pCLPCX to produce control retrovirus. Cell culture media containing retrovirus (viral supernatant) is collected at 48 and 72 hours following transfection, filtered through a 0.4 uM filter, and stored at −80° C.
HEK293 cells are plated in 6 well plates (Corning, product #3516) in 2 mL of complete DMEM cell culture media at 1×10^5 cells well and allowed to attach and grow overnight at 37° C. in humidified 5% CO2. The following day, the media is replaced with viral supernatant to which 10 ug/ml of Polybrene® (Santa Cruz Biotech, catalog #sc-134220) is added. Viral supernatant is replaced 24 hours later with complete DMEM media. Transduced cells are selected in complete DMEM cell culture media containing 1 microgram/mL of puromycin (Life Technologies, catalog #A1113803).
HEK293 cells containing empty pCLPCx vector (HEK293 empty), HEK293 cells stably over-expression WFS1 (HEK293 WFS1), HepG2, and HepG2 cells where WFS1 was depleted via CRISPR/Cas9 (HepG2 WFS1 KO) cells were plated into 96-well black plates (Corning, product #3904) in 100 microliters of complete DMEM cell culture media [DMEM (Life Technologies, product #11960-051) media supplemented with 10% FBS (Hyclone, catalog #SH30071.03), antimycotic/antibiotic (Life Technologies, product #15240-062), and Glutamax (Life Technologies, product #35050-061)] at 1,000 (HEK293) or 5,000 (HepG2) cells per well. Cells were allowed to attach and grow overnight, after which compounds are added at various concentrations. Cell viability was assessed 96 hrs after compound addition with CellTiter-Glo reagent (Promega, catalog #G7570) according to manufacturer's protocol and measurement on a Pherastar luminescence plate reader (BMG Labtech).
The IC50s for the viability of both the Hek293 empty vector and WFS1 over-expressing cells are summarized in Table 47: A<0.06 μM; 0.06 μM≤B<0.6 μM; 0.6 μM≤C<3.0 μM; D≥3.0 μM.

[3] = Homo sapiens, HEK293, Hek293 WFS1 over-expressing cells
[4] = Hek293 WFS1 over-expressing cells

Molecule | pIC50 [1] | pIC50 [2, 3] | pIC50 [2, 4]
Cc1nc(NCc2cnn(CCC3CCOCC3)c2)nc2c1NC(=O)[C@H](C)N2C [Compound 115, (7S)-4,7,8-trimethyl-2-(((1-(2-(tetrahydro-2H-pyran-4-yl)ethyl)-1H-pyrazol-4-yl)methyl)amino)-7,8-dihydropteridin-6(5H)-one] | 5.52 to 6.22 | 5.52 to 6.22 | –
Cc1nc(NCc2cnn(C3CCN(C(=O)c4ccc(F)cc4)CC3)c2)nc2c1NC(=O)[C@H](C)N2C [Compound 125, (7S)-2-(((1-(1-(4-Fluorobenzoyl)piperidin-4-yl)-1H-pyrazol-4-yl)methyl)amino)-4,7,8-trimethyl-7,8-dihydropteridin-6(5H)-one] | 6.22 to 7.22 | 5.52 to 6.22 | –
Cc1nc(C(F)(F)F)ccc1Cn1cc(CNc2nc(C)c3c(n2)N(C)[C@@H](C)C(=O)N3)cn1 [Compound 188, (S)-4,7,8-trimethyl-2-(((1-((2-methyl-6-(trifluoromethyl)pyridin-3-yl)methyl)-1H-pyrazol-4-yl)methyl)amino)-7,8-dihydropteridin-6(5H)-one] | 6.22 to 7.22 | > 7.22 | –
Cc1nc(NCc2cnn(Cc3ccc(C(F)(F)F)nc3)c2)nc2c1NC(=O)[C@H](C1CC1)N2C [Compound 386, (7S)-7-Cyclopropyl-4,8-dimethyl-2-(((1-((6-(trifluoromethyl)pyridin-3-yl)methyl)-1H-pyrazol-4-yl)methyl)amino)-7,8-dihydropteridin-6(5H)-one] | 6.22 to 7.22 | > 7.22 | –
Cc1nc(NCc2cnn(Cc3ccc(C(F)(F)F)nc3C(C)C)c2)nc2c1NC(=O)[C@H](C)N2C [Compound 388, (7S)-2-(((1-((2-isopropyl-6-(trifluoromethyl)pyridin-3-yl)methyl)-1H-pyrazol-4-yl)methyl)amino)-4,7,8-trimethyl-7,8-dihydropteridin-6(5H)-one] | > 7.22 | > 7.22 | –
Cc1nc(NCc2cnn(Cc3ccc(F)nc3)c2)nc2c1NC(=O)[C@H](C(C)C)N2C [Compound 384, (7S)-2-(((1-((6-fluoropyridin-3-yl)methyl)-1H-pyrazol-4-yl)methyl)amino)-7-isopropyl-4,8-dimethyl-7,8-dihydropteridin-6(5H)-one] | 6.22 to 7.22 | > 7.22 | –
Cc1nc(N[C@H]2C[C@H](Oc3ccc(F)cc3)C2)nc2c1N(C)C(=O)[C@H](C)N2C [Compound 250, (7S)-2-((trans-3-(4-fluorophenoxy)cyclobutyl)amino)-4,5,7,8-tetramethyl-7,8-dihydropteridin-6(5H)-one] | 6.22 to 7.22 | 6.22 to 7.22 | –
Cc1nc(NCc2cnn(Cc3cc(F)c(F)c(F)c3)c2)nc2c1NC(=O)[C@H](C)N2C [Compound 122, (7S)-4,7,8-trimethyl-2-(((1-(3,4,5-trifluorobenzyl)-1H-pyrazol-4-yl)methyl)amino)-7,8-dihydropteridin-6(5H)-one] | > 7.22 | > 7.22 | –
Cc1nc(NCc2cnn(CCc3ccc(F)cc3)c2)nc2c1N(C)C(=O)[C@H](C)N2C [Compound 8, (7S)-2-(((1-(4-fluorophenethyl)-1H-pyrazol-4-yl)methyl)amino)-4,5,7,8-tetramethyl-7,8-dihydropteridin-6(5H)-one] | 5.52 to 6.22 | ≤ 5.52 | –
Cc1nc(NCc2cnn(CC3CCC3)c2)nc2c1N(C)C(=O)[C@H](C)N2C [Compound 7, (7S)-2-(((1-(cyclobutylmethyl)-1H-pyrazol-4-yl)methyl)amino)-4,5,7,8-tetramethyl-7,8-dihydropteridin-6(5H)-one] | 6.22 to 7.22 | 6.22 to 7.22 | –
Cc1nc(NCc2cnn(Cc3ccc(F)nc3)c2)nc2c1NC(=O)[C@H](C1CC1)N2C [Compound 421, (7S)-7-cyclopropyl-2-(((1-((6-fluoropyridin-3-yl)methyl)-1H-pyrazol-4-yl)methyl)amino)-4,8-dimethyl-7,8-dihydropteridin-6(511)-one] | 6.22 to 7.22 | – | 6.22 to 7.22
Cc1cnc(C(F)(F)F)nc1-n1cc(CNc2ncc3c(n2)N(C)[C@@H](C)C(=O)N3)cn1 [Compound 164, (7S)-7,8-dimethyl-2-(((1-(5-methyl-2-(trifluoromethyl)pyrimidin-4-yl)-1H-pyrazol-4-yl)methyl)amino)-7,8-dihydropteridin-6(5H)-one] | 6.22 to 7.22 | 5.52 to 6.22 | –
COc1c(F)cc(Cn2cc(CNc3nc(C)c4c(n3)N(C)[C@@H](C)C(=O)N4)cn2)cc1F [Compound 46, (7S)-2-(((1-(3,5-difluoro-4-methoxybenzyl)-1H-pyrazol-4-yl)methyl)amino)-4,7,8-trimethyl-7,8-dihydropteridin-6(5H)-one] | > 7.22 | > 7.22 | –
Cc1cc(F)ncc1Cn1cc(CNc2nc(C)c3c(n2)N(C)[C@@H](C)C(=O)N3)cn1 [Compound 94, (7S)-2-(((1-((6-fluoro-4-methylpyridin-3-yl)methyl)-1H-pyrazol-4-yl)methyl)amino)-4,7,8-trimethyl-7,8-dihydropteridin-6(5H)-one] | 6.22 to 7.22 | > 7.22 | –
COc1cc(F)ccc1Cn1cc(CNc2nc(C)c3c(n2)N(C)[C@@H](C)C(=O)N3)cn1 [Compound 83, (7S)-2-(((1-(4-fluoro-2-methoxybenzyl)-1H-pyrazol-4-yl)methyl)amino)-4,7,8-trimethyl-7,8-dihydropteridin-6(5H)-one] | > 7.22 | > 7.22 | –
Cc1nc(NCc2cnn(Cc3cnc(Cl)c(F)c3)c2)nc2c1NC(=O)[C@H](C(C)C)N2C [Compound 424, (7S)-2-(((1-((6-chloro-5-fluoropyridin-3-yl)methyl)-1H-pyrazol-4-yl)methyl)amino)-7-isopropyl-4,8-dimethyl-7,8-dihydropteridin-6(5H)-one] | > 7.22 | > 7.22 | –
Cc1nc(NCc2cnn(Cc3cncc(F)c3)c2)nc2c1NC(=O)[C@H](C(C)C)N2C [Compound 415, (7S)-2-(((1-((5-fluoropyridin-3-yl)methyl)-1H-pyrazol-4-yl)methyl)amino)-7-isopropyl-4,8-dimethyl-7,8-dihydropteridin-6(5H)-one] | > 7.22 | > 7.22 | –
Cc1nc(NCc2cnn(Cc3ccc(C(F)(F)F)nc3[C@@H](C)O)c2)nc2c1NC(=O)[C@H](C)N2C (single isomer, unassigned) [Compound 420] | 6.22 to 7.22 | 6.22 to 7.22 | –
Cc1nc(NCc2cnn(Cc3cc(C(F)(F)F)nn3C)c2)nc2c1NC(=O)[C@H](C(C)C)N2C [Compound 397, (7S)-7-Isopropyl-4,8-dimethyl-2-(((1-((1-methyl-3-(trifluoromethyl)-1H-pyrazol-5-yl)methyl)-1H-pyrazol-4-yl)methyl)amino)-7,8-dihydropteridin-6(5H)-one] | 6.22 to 7.22 | > 7.22 | –
CCN1c2nc(NCc3cnn(Cc4ccc(C(F)(F)F)nc4)c3)nc(C)c2NC(=O)[C@@H]1C [Compound 395, (7S)-8-Ethyl-4,7-dimethyl-2-(((1-((6-(trifluoromethyl)pyridin-3-yl)methyl)-1H-pyrazol-4-yl)methyl)amino)-7,8-dihydropteridin-6(5H)-one] | 6.22 to 7.22 | > 7.22 | –
Cc1nc(N[C@@H]2CC[C@@H](Oc3cc(F)c(F)c(F)c3)C2)nc2c1N(C)C(=O)[C@H](C)N2C [Compound 272, (S)-4,5,7,8-tetramethyl-2-(((1R,3R)-3-(3,4,5-trifluorophenoxy)cyclopentyl)amino)-7,8-dihydropteridin-6(5H)-one] | 6.22 to 7.22 | > 7.22 | –
(7S)-4,7,8-trimethyl-2-((trans-3-(3,4-difluorophenoxy)cyclobutyl)amino)-7,8-dihydropteridin-6(5H)-one [Compound 251] | 6.22 to 7.22 | – | 6.22 to 7.22
